Assay results published in patent US12660819B2, “Herbicidal derivatives” (SYNGENTA CROP PROTECTION AG, priority 2020, dated 2026).

Legend:
Format in all cases: in vivo
[1] = test system: Ipomoea hederacea (IPOHE); experiment: Pre-emergence Test (glasshouse, percentage damage to the plant); settings: 1000 g/ha unless otherwise stated, five-point scale
[2] = test system: Amaranthus retoflexus (AMARE); experiment: as above; settings: 1000 g/ha unless otherwise stated, five-point scale
[3] = test system: Lolium perenne (LOLPE); experiment: as above; settings: 1000 g/ha unless otherwise stated, five-point scale
[4] = test system: Solanum nigrum (SOLNI); experiment: as above; settings: 1000 g/ha unless otherwise stated, five-point scale
[5] = test system: Echinochloa crus-galli (ECHCG); experiment: as above; settings: 1000 g/ha unless otherwise stated, five-point scale
[6] = test system: Setaria faberi (SETFA); experiment: as above; settings: 1000 g/ha unless otherwise stated, five-point scale
[7] = test system: Ipomoea hederacea (IPOHE); experiment: Post-emergence Test (glasshouse, percentage damage to the plant); settings: post-emergence spray, 1000 g/ha unless otherwise stated, evaluated after 13 days
Procedure, shortened: (§1)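 Compound formulated in 50:50 acetone/water with 0.5% Tween 20 was diluted to an aqueous spray and applied at 1000 g/ha, unless otherwise stated, onto sown pots. Evaluation after 13 days gave percentage damage, banded into a 1–5 score.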

[8] = test system: Lolium perenne (LOLPE); experiment: as above; settings: post-emergence spray, 1000 g/ha unless otherwise stated, evaluated after 13 days
Procedure, shortened: (§2)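 Scored 13 days after spraying as percentage plant damage in five bands (5=81–100%, 4=61–80%, 3=41–60%, 2=21–40%, 1=0–20%). Spray at 1000 g/ha unless stated, in acetone/water 50:50 plus 0.5% Tween 20, onto sown glasshouse pots (24/16 °C, 14 h light, 65% humidity).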

[9] = test system: Echinochloa crus-galli (ECHCG); experiment: as above; settings: post-emergence spray, 1000 g/ha unless otherwise stated, evaluated after 13 days
Procedure, shortened: as §2

[10] = test system: Solanum nigrum (SOLNI); experiment: as above; settings: post-emergence spray, 1000 g/ha unless otherwise stated, evaluated after 13 days
Procedure, shortened: as §2

[11] = test system: Amaranthus retoflexus (AMARE); experiment: as above; settings: post-emergence spray, 1000 g/ha unless otherwise stated, evaluated after 13 days
Procedure, shortened: as §2

[12] = test system: Setaria faberi (SETFA); experiment: as above; settings: post-emergence spray, 1000 g/ha unless otherwise stated, evaluated after 13 days
Procedure, shortened: as §1

| SMILES | percentage damage to the plant, IPOHE [1] | percentage damage to the plant, AMARE [2] | percentage damage to the plant, LOLPE [3] | percentage damage to the plant, SOLNI [4] | percentage damage to the plant, ECHCG [5] | percentage damage to the plant, SETFA [6] | Post-emergence Test IPOHE, percentage damage to the plant (five-point scale) [7] | Post-emergence Test LOLPE, percentage damage to the plant (five-point scale) [8] | Post-emergence Test ECHCG, percentage damage to the plant (five-point scale) [9] | Post-emergence Test SOLNI, percentage damage to the plant (five-point scale) [10] | Post-emergence Test AMARE, percentage damage to the plant (five-point scale) [11] | Post-emergence Test SETFA, percentage damage to the plant (five-point scale) [12] |
| --- | --- | --- | --- | --- | --- | --- | --- | --- | --- | --- | --- | --- |
| CCn1c(C)c(-c2cnn(C)c2)c(=O)c(C(=O)O)c1-c1ccc(Cl)c(Cl)c1 [Compound 1, 2-(3,4-dichlorophenyl)-1-ethyl-6-methyl-5-(1-methylpyrazol-4-yl)-4-oxo-pyridine-3-carboxylic acid] | 4 (4=61-80%) | 1 (1=0-20%) | 4 (4=61-80%) | 5 (5=81-100%) | 5 (5=81-100%) | 5 (5=81-100%) | 4 (4=61-80%) | 3 (3=41-60%) | 5 (5=81-100%) | 5 (5=81-100%) | 5 (5=81-100%) | 5 (5=81-100%) |
| CCn1c(C)c(-c2cccnc2)c(=O)c(C(=O)O)c1-c1ccc(Cl)c(Cl)c1 [Compound 19, 2-(3,4-dichlorophenyl)-1-ethyl-6-methyl-4-oxo-5-(3-pyridyl)pyridine-3-carboxylic acid] | 1 (1=0-20%) | 1 (1=0-20%) | 1 (1=0-20%) | 1 (1=0-20%) | 1 (1=0-20%) | 1 (1=0-20%) | 4 (4=61-80%) | 3 (3=41-60%) | 5 (5=81-100%) | 5 (5=81-100%) | 4 (4=61-80%) | 4 (4=61-80%) |
| CCn1c(C)c(-c2ccc(Cl)cc2Cl)c(=O)c(C(=O)O)c1-c1ccc(Cl)c(Cl)c1 [Compound 15, 5-(2,4-dichlorophenyl)-2-(3,4-dichlorophenyl)-1-ethyl-6-methyl-4-oxo-pyridine-3-carboxylic acid] | 1 (1=0-20%) | 5 (5=81-100%) | 1 (1=0-20%) | 3 (3=41-60%) | 1 (1=0-20%) | 5 (5=81-100%) | 2 (2=21-40%) | 1 (1=0-20%) | 4 (4=61-80%) | 4 (4=61-80%) | 5 (5=81-100%) | 5 (5=81-100%) |
| CCn1c(C)c(-c2ccccc2F)c(=O)c(C(=O)O)c1-c1ccc(Cl)c(Cl)c1 [Compound 14, 2-(3,4-dichlorophenyl)-1-ethyl-5-(2-fluorophenyl)-6-methyl-4-oxo-pyridine-3-carboxylic acid] | 3 (3=41-60%) | 2 (2=21-40%) | 1 (1=0-20%) | 2 (2=21-40%) | 4 (4=61-80%) | 5 (5=81-100%) | 4 (4=61-80%) | 4 (4=61-80%) | 4 (4=61-80%) | 3 (3=41-60%) | 4 (4=61-80%) | 4 (4=61-80%) |
| CCn1c(C)c(-c2ccc(OCc3ccccc3)cc2)c(=O)c(C(=O)O)c1-c1ccc(Cl)c(Cl)c1 [Compound 34, 5-(4-benzyloxyphenyl)-2-(3,4-dichlorophenyl)-1-ethyl-6-methyl-4-oxo-pyridine-3-carboxylic acid] | 1 (1=0-20%) | 3 (3=41-60%) | 2 (2=21-40%) | 2 (2=21-40%) | 1 (1=0-20%) | 3 (3=41-60%) | 1 (1=0-20%) | 1 (1=0-20%) | 2 (2=21-40%) | 4 (4=61-80%) | 4 (4=61-80%) | 2 (2=21-40%) |
| CCn1c(C)c(-c2ccc(OC)cc2)c(=O)c(C(=O)O)c1-c1ccc(Cl)c(Cl)c1 [Compound 18, 2-(3,4-dichlorophenyl)-1-ethyl-5-(4-methoxyphenyl)-6-methyl-4-oxo-pyridine-3-carboxylic acid] | 1 (1=0-20%) | 1 (1=0-20%) | 1 (1=0-20%) | 2 (2=21-40%) | 2 (2=21-40%) | 4 (4=61-80%) | 5 (5=81-100%) | 2 (2=21-40%) | 4 (4=61-80%) | 5 (5=81-100%) | 5 (5=81-100%) | 5 (5=81-100%) |
| CCn1c(C)c(-c2ccncc2)c(=O)c(C(=O)O)c1-c1ccc(Cl)c(Cl)c1 [Compound 25, 2-(3,4-dichlorophenyl)-1-ethyl-6-methyl-4-oxo-5-pyridin-1-ium-4-yl-pyridine-3-carboxylic acid;2,2,2-trifluoroacetate] | 1 (1=0-20%) | 1 (1=0-20%) | 1 (1=0-20%) | 1 (1=0-20%) | 1 (1=0-20%) | 3 (3=41-60%) | 2 (2=21-40%) | 1 (1=0-20%) | 4 (4=61-80%) | 2 (2=21-40%) | 3 (3=41-60%) | 4 (4=61-80%) |
| CCn1c(C)c(-c2ccc(Cl)c(Cl)c2)c(=O)c(C(=O)O)c1-c1ccc(Cl)c(Cl)c1 [Compound 29, 2,5-bis(3,4-dichlorophenyl)-1-ethyl-6-methyl-4-oxo-pyridine-3-carboxylic acid] | 1 (1=0-20%) | 3 (3=41-60%) | 1 (1=0-20%) | 1 (1=0-20%) | 1 (1=0-20%) | 3 (3=41-60%) | 2 (2=21-40%) | 2 (2=21-40%) | 1 (1=0-20%) | 3 (3=41-60%) | 5 (5=81-100%) | 3 (3=41-60%) |
